# Laboratory results: patent US6046331A, “Imidazolones and their use in treating benign prostatic hyperplasia and other disorders” (Synaptic Pharmaceutical Corporation, priority 1998, dated 2000)
# Target: T1, human α1b receptor (Homo sapiens, UniProt P35368)
# T1 construct: The entire coding region of α1b (1563 bp); expressed in transfected cells; host or cells: LM(tk-) mouse fibroblast line L-α1B, ATCC CR 11139
# T1 sequence (P35368 1-520): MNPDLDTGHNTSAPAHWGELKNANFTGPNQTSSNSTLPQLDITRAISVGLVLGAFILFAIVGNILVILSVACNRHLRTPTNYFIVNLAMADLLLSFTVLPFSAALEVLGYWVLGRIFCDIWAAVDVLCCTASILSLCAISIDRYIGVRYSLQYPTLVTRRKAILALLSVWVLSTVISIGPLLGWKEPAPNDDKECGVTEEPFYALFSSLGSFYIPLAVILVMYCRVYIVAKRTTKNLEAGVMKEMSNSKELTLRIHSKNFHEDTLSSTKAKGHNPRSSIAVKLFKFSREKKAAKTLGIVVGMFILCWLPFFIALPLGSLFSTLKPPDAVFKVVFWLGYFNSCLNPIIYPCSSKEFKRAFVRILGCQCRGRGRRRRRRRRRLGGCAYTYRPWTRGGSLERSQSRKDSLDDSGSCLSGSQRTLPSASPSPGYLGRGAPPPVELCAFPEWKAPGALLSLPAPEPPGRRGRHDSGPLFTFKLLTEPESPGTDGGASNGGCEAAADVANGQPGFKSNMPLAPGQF
# Assay: Radioligand binding ([^3 H]prazosin) at cloned human α1b receptor
# Settings: LM(tk-) cell membranes, read-out: hα1b Ki
# Description: Binding affinities were measured for selected compounds of the invention at six cloned human α1 and α2 receptor subtypes, as well as at the L-type calcium channel. The protocols for these experiments are given below.
# The activity of compounds at the different human receptors was determined in vitro using cultured cell lines that selectively express the receptor of interest. These cell lines were prepared by transfecting the cloned cDNA or cloned genomic DNA or constructs containing both genomic DNA and cDNA encoding the human α-adrenergic receptors as follows:
# α1b Human Adrenergic Receptor: The entire coding region of α1b (1563 bp), including 200 base pairs and 5' untranslated sequence (5' UT) and 600 bp of 3' untranslated sequence (3' UT), was cloned into the EcoRI site of pCEXV-3 eukaryotic expression vector. The construct involved ligating the full-length containing EcoRI brainstem cDNA fragment from λ ZapII into the expression vector. Stable cell lines were selected as described above. The cell line used herein was designated L-α1B and was deposited with the American Type Culture Collection, 12301 Parklawn Drive, Rockville, Md. 20852, U.S.A. under the provisions of the Budapest Treaty for the International Recognition of the Deposit of Microorganisms for the Purposes of Patent Procedure. The cell line L-α1B was accorded ATCC Accession No. CR 11139, on Sep. 29, 1992.
# Radioligand Binding Assays for α1 receptors:
# Transfected cells from culture flasks were scraped into 5 ml of 5 mM Tris-HCl, 5 mM EDTA, pH 7.5, and lysed by sonication. The cell lysates were centrifuged at 1000 rpm for 5 min at 4° C., and the supernatant was centrifuged at 30,000× g for 20 min at 4° C. The pellet was suspended in 50 mM Tris-HCl, 1 mM MgCl2, and 0.1% ascorbic acid at pH 7.5. Binding of the α1 antagonist [^3 H]prazosin (0.5 nM, specific activity 76.2 Ci/mmol) to membrane preparations of LM(tk-) cells was done in a final volume of 0.25 ml and incubated at 37° C. for 20 min. Nonspecific binding was determined in the presence of […] phentolamine. The reaction was stopped by filtration through GF/B filters using a cell harvester. Inhibition experiments, routinely consisting of 7 concentrations of the tested compounds, were analyzed using a non-linear regression curve-fitting computer program to obtain Ki values.
# The compounds described above were assayed using cloned human alpha adrenergic receptors. […] The binding affinities of several compounds are illustrated in the following table.
# Binding affinities of selected compounds of the present invention at cloned human α1d, α1b and α1a receptors. (h=human)
row,Structure (SMILES),Ki [nM]
1,"COC(=O)c1[nH]c(=O)n(CCCCCN2CCC(C(=O)OC)(c3ccccc3)CC2)c1Cc1ccc(F)c(F)c1 [Compound 37, 5-(3,4-Difluorobenzyl)-2,3-dihydro-4-methoxycarbonyl-1-(5-(4-methoxycarbonyl-4-phenylpiperidin-1-yl)pent-1-yl)-2(1H) -imidazolone]",558
2,"COC(=O)c1ccccc1N1CCN(CCCCCn2c(-c3cc(F)c(F)c(F)c3)c(C(=O)OC)[nH]c2=O)CC1 [Compound 5, 5-(3,4,5-Trifluorophenyl)-2,3-dihydro-4-methoxycarbonyl-1-(5-(4-(2-methoxycarbonylphenyl)piperazin-1-yl)pent-1-yl)-2(1H)-imidazolone]",11.7
3,"COC(=O)c1[nH]c(=O)n(CCCCCN2CCC(C(=O)OC)(c3ccccc3)CC2)c1-c1ccc(F)c(F)c1 [Compound 1, 1-(5-(4-Methoxycarbonyl-4-phenylpiperidin-1-yl)pent-1-yl)-4-methoxycarbonyl-5-(3,4-difluorophenyl)-2,3-dihydro-2(1H)-imidazolone]",309
4,"COC(=O)c1[nH]c(=O)n(CCCCCN2CCC(C#N)(c3ccccc3)CC2)c1-c1ccc(F)c(F)c1 [Compound 2, 5-(3,4-Difluorophenyl)-2,3-dihydro-4-methoxycarbonyl-1-(5-(4-cyano-4-phenylpiperidin-1-yl)pent-1-yl)-2(1H)-imidazolone]",347
5,"COC(=O)c1[nH]c(=O)n(CCCCCN2CCC(O)(c3ccccc3)CC2)c1-c1ccc(F)c(F)c1 [Compound 3, 5-(3,4-Difluorophenyl)-2,3-dihydro-4-methoxycarbonyl-1-(5-(4-hydroxy-4-phenylpiperidin-1-yl)pent-1-yl)-2(1H)-imidazolone]",1580
6,"CCOC(=O)c1[nH]c(=O)n(CCCCCN2CCN(c3ccccc3C(N)=O)CC2)c1-c1ccc(F)c(F)c1 [Compound 6, 1-(5-(4-(2-Aminocarbonylphenyl)piperazin-1-yl)pent-1-yl)-4-ethoxycarbonyl-5-(3,4-difluorophenyl)-2,3-dihydro-2(1H)-imidazolone]",110
7,"COC(=O)c1[nH]c(=O)n(CCCCCN2CCN(c3ccccc3C(N)=O)CC2)c1-c1cc(F)c(F)c(F)c1 [Compound 4, 1-(5-(4-(2-Aminocarbonylphenyl)piperazin-1-yl)pent-1-yl)-5-(3,4,5-trifluorophenyl)-2,3-dihydro-4-methoxycarbonyl-2(1H)-imidazolone]",159
8,"COC(=O)c1[nH]c(=O)n(CCCCCN2CCN(c3ccccc3C(N)=O)CC2)c1-c1cc(F)c(F)cc1F [Compound 7, 1-(5-(4-(2-Aminocarbonylphenyl)piperazin-1-yl)pent-1-yl)-5-(2,4,5-trifluorophenyl)-2,3-dihydro-4-methoxylcarboxy-2(1H)-imidazolone]",111
